# Paper PMC8258697 (The Journal of Biological Chemistry, 2021)
# Columns and labels:
# PPARγ LBD [1] = biological target: T1, PPARγ LBD (Homo sapiens, UniProt P37231); test: Two-dimensional titration of SR11237 and unlabeled mutant RXRα LBD: CBP-1 recruitment by sGFP-PPARγ LBD (HTRF); assay type: biochemical; conditions: combined addition of SR11237 and RXRα at concentrations equal to PPARγ (100 nM) and higher;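 on HTRF mean; N=2: mutant RXRα LBD carries mutations that block its own coactivator recruitment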
# T1 construct: MBP-Asn10-His8-TEV site (N, cleaved yes); made in house; host or cells: E. coli T7 express (co-expressed with GroEL/ES)
# T1 sequence (P37231 1-505): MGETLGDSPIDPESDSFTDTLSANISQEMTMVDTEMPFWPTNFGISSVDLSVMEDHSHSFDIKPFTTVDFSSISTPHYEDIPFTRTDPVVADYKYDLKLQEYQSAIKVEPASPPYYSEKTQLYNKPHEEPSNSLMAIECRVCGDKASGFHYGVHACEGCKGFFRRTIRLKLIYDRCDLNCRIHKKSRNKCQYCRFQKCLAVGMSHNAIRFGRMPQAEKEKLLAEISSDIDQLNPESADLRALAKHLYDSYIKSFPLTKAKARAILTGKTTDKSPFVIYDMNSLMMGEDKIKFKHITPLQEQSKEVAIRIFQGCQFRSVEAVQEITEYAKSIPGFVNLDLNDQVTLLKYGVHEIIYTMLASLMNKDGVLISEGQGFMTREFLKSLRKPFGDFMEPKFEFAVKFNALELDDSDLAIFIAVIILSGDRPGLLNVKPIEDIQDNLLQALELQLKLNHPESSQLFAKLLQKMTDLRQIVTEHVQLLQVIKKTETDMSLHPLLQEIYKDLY
# PPARγ LBD [2] = test: as above; assay type: biochemical, human
structure (smiles),measurement,setting,value
CC1(C)CCC(C)(C)c2cc(C3(c4ccc(C(=O)O)cc4)OCCO3)ccc21 [SR11237],CBP-1 recruitment relative to full activation of monomeric PPARγ with rosiglitazone,PPARγ LBD [1],up to 26%
same,HTRF mean; N=2,"PPARγ LBD [2]; SR11237 0.268435 nM, RXRα mutant LBD 0.976562 nM",7866
same,HTRF mean; N=2,"PPARγ LBD [2]; SR11237 0.268435 nM, RXRα mutant LBD 1.95312 nM",7838
same,HTRF mean; N=2,"PPARγ LBD [2]; SR11237 0.268435 nM, RXRα mutant LBD 3.90625 nM",7920
same,HTRF mean; N=2,"PPARγ LBD [2]; SR11237 0.268435 nM, RXRα mutant LBD 7.8125 nM",7909
same,HTRF mean; N=2,"PPARγ LBD [2]; SR11237 0.268435 nM, RXRα mutant LBD 31.25 nM",7903
same,HTRF mean; N=2,"PPARγ LBD [2]; SR11237 0.268435 nM, RXRα mutant LBD 62.5 nM",8248
same,HTRF mean; N=2,"PPARγ LBD [2]; SR11237 0.268435 nM, RXRα mutant LBD 250 nM",8688
same,HTRF mean; N=2,"PPARγ LBD [2]; SR11237 0.268435 nM, RXRα mutant LBD 500 nM",8760
same,HTRF mean; N=2,"PPARγ LBD [2]; SR11237 0.268435 nM, RXRα mutant LBD 1000 nM",8782
same,HTRF mean; N=2,"PPARγ LBD [2]; SR11237 0.671089 nM, RXRα mutant LBD 0.976562 nM",8003
same,HTRF mean; N=2,"PPARγ LBD [2]; SR11237 0.671089 nM, RXRα mutant LBD 1.95312 nM",7881
same,HTRF mean; N=2,"PPARγ LBD [2]; SR11237 0.671089 nM, RXRα mutant LBD 3.90625 nM",7929
same,HTRF mean; N=2,"PPARγ LBD [2]; SR11237 0.671089 nM, RXRα mutant LBD 7.8125 nM",7967
same,HTRF mean; N=2,"PPARγ LBD [2]; SR11237 0.671089 nM, RXRα mutant LBD 31.25 nM",8123
same,HTRF mean; N=2,"PPARγ LBD [2]; SR11237 0.671089 nM, RXRα mutant LBD 62.5 nM",8262
same,HTRF mean; N=2,"PPARγ LBD [2]; SR11237 0.671089 nM, RXRα mutant LBD 250 nM",8624
same,HTRF mean; N=2,"PPARγ LBD [2]; SR11237 0.671089 nM, RXRα mutant LBD 500 nM",8662
same,HTRF mean; N=2,"PPARγ LBD [2]; SR11237 0.671089 nM, RXRα mutant LBD 1000 nM",8739
same,HTRF mean; N=2,"PPARγ LBD [2]; SR11237 1.67772 nM, RXRα mutant LBD 0.976562 nM",7886
same,HTRF mean; N=2,"PPARγ LBD [2]; SR11237 1.67772 nM, RXRα mutant LBD 1.95312 nM",7834
same,HTRF mean; N=2,"PPARγ LBD [2]; SR11237 1.67772 nM, RXRα mutant LBD 3.90625 nM",7842
same,HTRF mean; N=2,"PPARγ LBD [2]; SR11237 1.67772 nM, RXRα mutant LBD 7.8125 nM",7973
same,HTRF mean; N=2,"PPARγ LBD [2]; SR11237 1.67772 nM, RXRα mutant LBD 31.25 nM",8258
same,HTRF mean; N=2,"PPARγ LBD [2]; SR11237 1.67772 nM, RXRα mutant LBD 62.5 nM",8301
same,HTRF mean; N=2,"PPARγ LBD [2]; SR11237 1.67772 nM, RXRα mutant LBD 250 nM",8705
same,HTRF mean; N=2,"PPARγ LBD [2]; SR11237 1.67772 nM, RXRα mutant LBD 500 nM",8706
same,HTRF mean; N=2,"PPARγ LBD [2]; SR11237 1.67772 nM, RXRα mutant LBD 1000 nM",8875
same,HTRF mean; N=2,"PPARγ LBD [2]; SR11237 10.4858 nM, RXRα mutant LBD 0.976562 nM",7841
same,HTRF mean; N=2,"PPARγ LBD [2]; SR11237 10.4858 nM, RXRα mutant LBD 1.95312 nM",7813
same,HTRF mean; N=2,"PPARγ LBD [2]; SR11237 10.4858 nM, RXRα mutant LBD 3.90625 nM",7835
same,HTRF mean; N=2,"PPARγ LBD [2]; SR11237 10.4858 nM, RXRα mutant LBD 7.8125 nM",7963
same,HTRF mean; N=2,"PPARγ LBD [2]; SR11237 10.4858 nM, RXRα mutant LBD 31.25 nM",8186
same,HTRF mean; N=2,"PPARγ LBD [2]; SR11237 10.4858 nM, RXRα mutant LBD 62.5 nM",8299
same,HTRF mean; N=2,"PPARγ LBD [2]; SR11237 10.4858 nM, RXRα mutant LBD 250 nM",8710
same,HTRF mean; N=2,"PPARγ LBD [2]; SR11237 10.4858 nM, RXRα mutant LBD 500 nM",8818
same,HTRF mean; N=2,"PPARγ LBD [2]; SR11237 10.4858 nM, RXRα mutant LBD 1000 nM",8916
same,HTRF mean; N=2,"PPARγ LBD [2]; SR11237 26.2144 nM, RXRα mutant LBD 0.976562 nM",7919
same,HTRF mean; N=2,"PPARγ LBD [2]; SR11237 26.2144 nM, RXRα mutant LBD 1.95312 nM",7957
same,HTRF mean; N=2,"PPARγ LBD [2]; SR11237 163.84 nM, RXRα mutant LBD 0.976562 nM",7969
same,HTRF mean; N=2,"PPARγ LBD [2]; SR11237 163.84 nM, RXRα mutant LBD 1.95312 nM",7882
same,HTRF mean; N=2,"PPARγ LBD [2]; SR11237 163.84 nM, RXRα mutant LBD 3.90625 nM",7848
same,HTRF mean; N=2,"PPARγ LBD [2]; SR11237 163.84 nM, RXRα mutant LBD 7.8125 nM",7981
same,HTRF mean; N=2,"PPARγ LBD [2]; SR11237 163.84 nM, RXRα mutant LBD 31.25 nM",8037
same,HTRF mean; N=2,"PPARγ LBD [2]; SR11237 163.84 nM, RXRα mutant LBD 62.5 nM",8496
same,HTRF mean; N=2,"PPARγ LBD [2]; SR11237 163.84 nM, RXRα mutant LBD 250 nM",9360
same,HTRF mean; N=2,"PPARγ LBD [2]; SR11237 163.84 nM, RXRα mutant LBD 500 nM",9174
same,HTRF mean; N=2,"PPARγ LBD [2]; SR11237 163.84 nM, RXRα mutant LBD 1000 nM",9009
same,HTRF mean; N=2,"PPARγ LBD [2]; SR11237 1024 nM, RXRα mutant LBD 1.95312 nM",7904
same,HTRF mean; N=2,"PPARγ LBD [2]; SR11237 1024 nM, RXRα mutant LBD 3.90625 nM",7933
same,HTRF mean; N=2,"PPARγ LBD [2]; SR11237 1024 nM, RXRα mutant LBD 7.8125 nM",8096
same,HTRF mean; N=2,"PPARγ LBD [2]; SR11237 1024 nM, RXRα mutant LBD 31.25 nM",8413
same,HTRF mean; N=2,"PPARγ LBD [2]; SR11237 1024 nM, RXRα mutant LBD 62.5 nM",8597
same,HTRF mean; N=2,"PPARγ LBD [2]; SR11237 1024 nM, RXRα mutant LBD 250 nM",9475
same,HTRF mean; N=2,"PPARγ LBD [2]; SR11237 1024 nM, RXRα mutant LBD 500 nM",9672
same,HTRF mean; N=2,"PPARγ LBD [2]; SR11237 1024 nM, RXRα mutant LBD 1000 nM",9907
same,HTRF mean; N=2,"PPARγ LBD [2]; SR11237 16000 nM, RXRα mutant LBD 0.976562 nM",8373
same,HTRF mean; N=2,"PPARγ LBD [2]; SR11237 16000 nM, RXRα mutant LBD 1.95312 nM",8383
same,HTRF mean; N=2,"PPARγ LBD [2]; SR11237 16000 nM, RXRα mutant LBD 3.90625 nM",8482
same,HTRF mean; N=2,"PPARγ LBD [2]; SR11237 16000 nM, RXRα mutant LBD 7.8125 nM",8492
same,HTRF mean; N=2,"PPARγ LBD [2]; SR11237 16000 nM, RXRα mutant LBD 31.25 nM",8658
same,HTRF mean; N=2,"PPARγ LBD [2]; SR11237 16000 nM, RXRα mutant LBD 62.5 nM",9133
same,HTRF mean; N=2,"PPARγ LBD [2]; SR11237 16000 nM, RXRα mutant LBD 250 nM",9981
same,HTRF mean; N=2,"PPARγ LBD [2]; SR11237 16000 nM, RXRα mutant LBD 500 nM",10090
same,HTRF mean; N=2,"PPARγ LBD [2]; SR11237 16000 nM, RXRα mutant LBD 1000 nM",10256
same,HTRF mean; N=2,"PPARγ LBD [2]; SR11237 100000 nM, RXRα mutant LBD 0.976562 nM",8525
same,HTRF mean; N=2,"PPARγ LBD [2]; SR11237 100000 nM, RXRα mutant LBD 1.95312 nM",8620
same,HTRF mean; N=2,"PPARγ LBD [2]; SR11237 100000 nM, RXRα mutant LBD 3.90625 nM",8706
same,HTRF mean; N=2,"PPARγ LBD [2]; SR11237 100000 nM, RXRα mutant LBD 7.8125 nM",8679
same,HTRF mean; N=2,"PPARγ LBD [2]; SR11237 100000 nM, RXRα mutant LBD 31.25 nM",8875
same,HTRF mean; N=2,"PPARγ LBD [2]; SR11237 100000 nM, RXRα mutant LBD 62.5 nM",9423
same,HTRF mean; N=2,"PPARγ LBD [2]; SR11237 100000 nM, RXRα mutant LBD 250 nM",9880
same,HTRF mean; N=2,"PPARγ LBD [2]; SR11237 100000 nM, RXRα mutant LBD 500 nM",10045
same,HTRF mean; N=2,"PPARγ LBD [2]; SR11237 100000 nM, RXRα mutant LBD 1000 nM",9921
same,HTRF mean; N=2,"PPARγ LBD [2]; SR11237 […], RXRα mutant LBD 0.976562 nM",8114
same,HTRF mean; N=2,"PPARγ LBD [2]; SR11237 […], RXRα mutant LBD 1.95312 nM",8140
same,HTRF mean; N=2,"PPARγ LBD [2]; SR11237 […], RXRα mutant LBD 3.90625 nM",8154
same,HTRF mean; N=2,"PPARγ LBD [2]; SR11237 […], RXRα mutant LBD 7.8125 nM",8229
same,HTRF mean; N=2,"PPARγ LBD [2]; SR11237 […], RXRα mutant LBD 31.25 nM",8421
same,HTRF mean; N=2,"PPARγ LBD [2]; SR11237 […], RXRα mutant LBD 62.5 nM",8922
same,HTRF mean; N=2,"PPARγ LBD [2]; SR11237 […], RXRα mutant LBD 250 nM",9616
same,HTRF mean; N=2,"PPARγ LBD [2]; SR11237 […], RXRα mutant LBD 500 nM",9926
same,HTRF mean; N=2,"PPARγ LBD [2]; SR11237 […], RXRα mutant LBD 1000 nM",9869
same,CBP-1 recruitment relative to that seen with rosiglitazone,PPARγ LBD [2]; other factor (RXRα or SR11237) present at ≤1 nM,≤ 5%
